Source: ChEMBL document CHEMBL6109078, “Pyrylium derivatives as outer membrane permeabilizers against MDR gram-negative bacteria via multi-target mode of action” (Eur J Med Chem, 2025)
Bridge positions count the residues as written; N and C are the ends. Square brackets hold non-standard residues; d marks the D form. Peptide text beside a SMILES is read from it. * marks the point of attachment. X1 = CC[C@H](C)CCCCC(=O)*; Dab = NCC[C@H](N)C(=O)O

What was measured:
Acinetobacter baumannii [1] = assay: Antibacterial activity against Acinetobacter baumannii ATCC 19606 assessed as inhibition of bacterial growth by CLSI protocol based method; assay type: functional
Escherichia coli [2] = assay: Antibacterial activity against Escherichia coli ATCC 25922 assessed as inhibition of bacterial growth by CLSI protocol based method; assay type: functional
Escherichia coli [3] = assay: Antibacterial activity against ESBL positive Escherichia coli ATCC 35218 assessed as inhibition of bacterial growth by CLSI protocol based method; assay type: functional
Klebsiella pneumoniae [4] = assay: Antibacterial activity against Klebsiella pneumoniae ATCC 700603 assessed as inhibition of bacterial growth by CLSI protocol based method; assay type: functional
Pseudomonas aeruginosa [5] = assay: Antibacterial activity Pseudomonas aeruginosa ATCC 27853 assessed as inhibition of bacterial growth by CLSI protocol based method; assay type: functional
Acinetobacter baumannii [6] = assay: Antibacterial activity against multi-drug resistant Acinetobacter baumannii clinical isolate 5 assessed as inhibition of bacterial growth by CLSI protocol based method; assay type: functional
Acinetobacter baumannii [7] = assay: Antibacterial activity against multi-drug resistant Acinetobacter baumannii clinical isolate 10 assessed as inhibition of bacterial growth by CLSI protocol based method; assay type: functional
Acinetobacter baumannii [8] = assay: Antibacterial activity against multi-drug resistant Acinetobacter baumannii clinical isolate 2 assessed as inhibition of bacterial growth by CLSI protocol based method; assay type: functional
Acinetobacter baumannii [9] = assay: Antibacterial activity against multi-drug resistant Acinetobacter baumannii clinical isolate 4 assessed as inhibition of bacterial growth by CLSI protocol based method; assay type: functional
Acinetobacter baumannii [10] = assay: Antibacterial activity against multi-drug resistant Acinetobacter baumannii clinical isolate 51 assessed as inhibition of bacterial growth by CLSI protocol based method; assay type: functional
Acinetobacter baumannii [11] = assay: Antibacterial activity against multi-drug resistant Acinetobacter baumannii clinical isolate 14 assessed as inhibition of bacterial growth by CLSI protocol based method; assay type: functional
Acinetobacter baumannii [12] = assay: Antibacterial activity against multi-drug resistant Acinetobacter baumannii clinical isolate 1 assessed as inhibition of bacterial growth by CLSI protocol based method; assay type: functional
Acinetobacter baumannii [13] = assay: Antibacterial activity against multi-drug resistant Acinetobacter baumannii clinical isolate 43 assessed as inhibition of bacterial growth by CLSI protocol based method; assay type: functional
Escherichia coli [14] = assay: Antibacterial activity against multi-drug resistant Escherichia coli clinical isolate 1 assessed as inhibition of bacterial growth by CLSI protocol based method; assay type: functional
Escherichia coli [15] = assay: Antibacterial activity against Escherichia coli CG-4 expressing MCR-1 and NDM-1 assessed as inhibition of bacterial growth by CLSI protocol based method; assay type: functional
Escherichia coli [16] = assay: Antibacterial activity against Escherichia coli ATCC 25922 infected in Galleria mellonella larvae assessed as survival rate of larvae at 1 microg/ml relative to control; assay type: functional
Acinetobacter baumannii [17] = assay: Antibacterial activity against Acinetobacter baumannii ATCC 19606 infected in Galleria mellonella larvae assessed as survival rate of larvae at 1 microg/ml measured after 96 hrs relative to control; assay type: functional
Klebsiella pneumoniae [18] = assay: Antibacterial activity against Klebsiella pneumoniae BAA ATCC 1706 assessed as inhibition of bacterial growth by CLSI protocol based method; assay type: functional
Pseudomonas aeruginosa [19] = assay: Antibacterial activity Pseudomonas aeruginosa PAO1 assessed as inhibition of bacterial growth by CLSI protocol based method; assay type: functional
Acinetobacter baumannii [20] = assay: Synergistic antibacterial activity against Acinetobacter baumannii ATCC 19606 assessed as inhibition of bacterial growth by measuring polymyxin B MIC by checkerboard assay; assay type: functional
Acinetobacter baumannii [21] = assay: Synergistic antibacterial activity against multi-drug resistant Acinetobacter baumannii clinical isolate 5 assessed as inhibition of bacterial growth by measuring polymyxin B MIC by checkerboard assay; assay type: functional
Acinetobacter baumannii [22] = assay: Synergistic antibacterial activity against multi-drug resistant Acinetobacter baumannii clinical isolate 14 assessed as inhibition of bacterial growth by measuring polymyxin B MIC by checkerboard assay; assay type: functional
Acinetobacter baumannii [23] = assay: Synergistic antibacterial activity against multi-drug resistant Acinetobacter baumannii clinical isolate 1 assessed as inhibition of bacterial growth by measuring polymyxin B MIC by checkerboard assay; assay type: functional
Acinetobacter baumannii [24] = assay: Synergistic antibacterial activity against multi-drug resistant Acinetobacter baumannii clinical isolate 43 assessed as inhibition of bacterial growth by measuring polymyxin B MIC by checkerboard assay; assay type: functional
Escherichia coli [25] = assay: Synergistic antibacterial activity against Escherichia coli ATCC 25922 assessed as inhibition of bacterial growth by measuring polymyxin B MIC by checkerboard assay; assay type: functional
Escherichia coli [26] = assay: Synergistic antibacterial activity against Escherichia coli ATCC 35218 assessed as inhibition of bacterial growth by measuring polymyxin B MIC by checkerboard assay; assay type: functional; settings: Escherichia coli, ATCC 35218; read-out: MIC
Escherichia coli [27] = assay: Synergistic antibacterial activity against multi-drug resistant Escherichia coli clinical isolate 1 assessed as inhibition of bacterial growth by measuring polymyxin B MIC by checkerboard assay; assay type: functional
Escherichia coli [28] = assay: Synergistic antibacterial activity against Escherichia coli CG-4 expressing MCR-1 and NDM-1 assessed as inhibition of bacterial growth by measuring polymyxin B MIC by checkerboard assay; assay type: functional
Acinetobacter baumannii [29] = assay: Synergistic antibacterial activity against Acinetobacter baumannii ATCC 19606 assessed as inhibition of bacterial growth in presence of polymyxin B by checkerboard assay; assay type: functional
Acinetobacter baumannii [30] = assay: Synergistic antibacterial activity against multi-drug resistant Acinetobacter baumannii clinical isolate 5 assessed as inhibition of bacterial growth in presence of polymyxin B by checkerboard assay; assay type: functional
Acinetobacter baumannii [31] = assay: Synergistic antibacterial activity against multi-drug resistant Acinetobacter baumannii clinical isolate 14 assessed as inhibition of bacterial growth in presence of polymyxin B by checkerboard assay; assay type: functional
Acinetobacter baumannii [32] = assay: Synergistic antibacterial activity against multi-drug resistant Acinetobacter baumannii clinical isolate 1 assessed as inhibition of bacterial growth in presence of polymyxin B by checkerboard assay; assay type: functional
Acinetobacter baumannii [33] = assay: Synergistic antibacterial activity against multi-drug resistant Acinetobacter baumannii clinical isolate 43 assessed as inhibition of bacterial growth in presence of polymyxin B by checkerboard assay; assay type: functional
Escherichia coli [34] = assay: Synergistic antibacterial activity against Escherichia coli ATCC 25922 assessed as inhibition of bacterial growth in presence of polymyxin B by checkerboard assay; assay type: functional
Escherichia coli [35] = assay: Synergistic antibacterial activity against Escherichia coli ATCC 35218 assessed as inhibition of bacterial growth in presence of polymyxin B by checkerboard assay; assay type: functional
Escherichia coli [36] = assay: Synergistic antibacterial activity against multi-drug resistant Escherichia coli clinical isolate 1 assessed as inhibition of bacterial growth in presence of polymyxin B by checkerboard assay; assay type: functional
Escherichia coli [37] = assay: Synergistic antibacterial activity against Escherichia coli CG-4 expressing MCR-1 and NDM-1 assessed as inhibition of bacterial growth in presence of polymyxin B by checkerboard assay; assay type: functional
Acinetobacter baumannii [38] = assay: Synergistic antibacterial activity against Acinetobacter baumannii ATCC 19606 assessed as fractional inhibitory concentration index in presence of polymyxin B by checkerboard assay; assay type: functional
Acinetobacter baumannii [39] = assay: Synergistic antibacterial activity against multi-drug resistant Acinetobacter baumannii clinical isolate 1 assessed as fractional inhibitory concentration index in presence of polymyxin B by checkerboard assay; assay type: functional
Acinetobacter baumannii [40] = assay: Synergistic antibacterial activity against multi-drug resistant Acinetobacter baumannii clinical isolate 43 assessed as fractional inhibitory concentration index in presence of polymyxin B by checkerboard assay; assay type: functional
Escherichia coli [41] = assay: Synergistic antibacterial activity against Escherichia coli ATCC 25922 assessed as fractional inhibitory concentration index in presence of polymyxin B by checkerboard assay; assay type: functional
Escherichia coli [42] = assay: Synergistic antibacterial activity against Escherichia coli ATCC 35218 assessed as fractional inhibitory concentration index in presence of polymyxin B by checkerboard assay; assay type: functional
Escherichia coli [43] = assay: Synergistic antibacterial activity against multi-drug resistant Escherichia coli clinical isolate 1 assessed as fractional inhibitory concentration index in presence of polymyxin B by checkerboard assay; assay type: functional
Escherichia coli [44] = assay: Synergistic antibacterial activity against Escherichia coli CG-4 expressing MCR-1 and NDM-1 assessed as fractional inhibitory concentration index in presence of polymyxin B by checkerboard assay; assay type: functional
[45] = Binding affinity to His-tagged LptA (unknown origin) extracted from Escherichia coli BL21 (DE3) cells assessed as dissociation constant by BLI analysis; parameters: species or system Bacteria
[46] = Binding affinity to His-tagged LptC (unknown origin) extracted from Escherichia coli BL21 (DE3) cells assessed as dissociation constant by BLI analysis; parameters: species or system Bacteria

CC(C)CCCCC(=O)N[C@@H](CCN)C(=O)N[C@H](C(=O)N[C@@H](CCN)C(=O)N[C@H]1CCNC(=O)[C@H]([C@@H](C)O)NC(=O)[C@H](CCN)NC(=O)[C@H](CCN)NC(=O)[C@H](CC(C)C)NC(=O)[C@@H](Cc2ccccc2)NC(=O)[C@H](CCN)NC1=O)[C@@H](C)O.CC[C@H](C)CCCCC(=O)N[C@@H](CCN)C(=O)N[C@H](C(=O)N[C@@H](CCN)C(=O)N[C@H]1CCNC(=O)[C@H]([C@@H](C)O)NC(=O)[C@H](CCN)NC(=O)[C@H](CCN)NC(=O)[C@H](CC(C)C)NC(=O)[C@@H](Cc2ccccc2)NC(=O)[C@H](CCN)NC1=O)[C@@H](C)O (X1-[Dab]T[Dab][Dab][Dab][dF]L[Dab][Dab]T; lactam 4-C) gave an MIC (Acinetobacter baumannii [1]) of 0.05 µg/mL, an MIC (Escherichia coli [2]) of 0.05 µg/mL and an MIC (Escherichia coli [3]) of 0.1 µg/mL. For the same molecule, the MIC (Klebsiella pneumoniae [4]) was 0.2 µg/mL, the MIC (Pseudomonas aeruginosa [5]) was 6.25 µg/mL and the MIC (Acinetobacter baumannii [6]) was 0.05 µg/mL. It also gave an MIC (Acinetobacter baumannii [7]) of 0.05 µg/mL, an MIC (Acinetobacter baumannii [8]) of 0.39 µg/mL and an MIC (Acinetobacter baumannii [9]) of 0.39 µg/mL. It also gave an MIC (Acinetobacter baumannii [10]) of 0.78 µg/mL, an MIC (Acinetobacter baumannii [11]) of 0.39 µg/mL and an MIC (Acinetobacter baumannii [12]) of over 100 µg/mL. For the same molecule, the MIC (Acinetobacter baumannii [13]) was over 100 µg/mL, the MIC (Escherichia coli [14]) was 12.5 µg/mL and the MIC (Escherichia coli [15]) was 6.25 µg/mL. The survival at 1 µg/mL (Escherichia coli [16]) was 40% and the survival at 1 µg/mL (Acinetobacter baumannii [17]) was 20%.
In the case of CN(C)c1ccc(/C=C/c2cc(C(C)(C)C)[o+]c(C(C)(C)C)c2)cc1.O=S(=O)([O-])C(F)(F)F, the MIC (Acinetobacter baumannii [1]) is reported as 12.5 µg/mL, the MIC (Escherichia coli [2]) is reported as 12.5 µg/mL and the MIC (Escherichia coli [3]) is reported as 12.5 µg/mL. For the same molecule, the MIC (Klebsiella pneumoniae [4]) was over 100 µg/mL, the MIC (Klebsiella pneumoniae [18]) was over 100 µg/mL and the MIC (Pseudomonas aeruginosa [5]) was over 100 µg/mL. For the same molecule, the MIC (Pseudomonas aeruginosa [19]) was over 100 µg/mL, the MIC (Acinetobacter baumannii [6]) was 50 µg/mL and the MIC (Acinetobacter baumannii [7]) was 25 µg/mL. The MIC (Acinetobacter baumannii [8]) was 25 µg/mL, the MIC (Acinetobacter baumannii [9]) was 25 µg/mL and the MIC (Acinetobacter baumannii [10]) was 50 µg/mL. It also gave an MIC (Acinetobacter baumannii [11]) of 25 µg/mL, an MIC (Acinetobacter baumannii [12]) of 100 µg/mL and an MIC (Acinetobacter baumannii [13]) of 50 µg/mL. The MIC (Escherichia coli [14]) was 100 µg/mL, the MIC (Escherichia coli [15]) was 25 µg/mL and the MIC (Acinetobacter baumannii [20]) was 0.006 µg/mL. It also gave an MIC (Acinetobacter baumannii [21]) of 0.006 µg/mL, an MIC (Acinetobacter baumannii [22]) of 0.006 µg/mL and an MIC (Acinetobacter baumannii [23]) of 0.05 µg/mL. The MIC (Acinetobacter baumannii [24]) was 1 10^-4 ug/ml, the MIC (Escherichia coli [25]) was 7.8 10^-4 ug/ml and the MIC (Escherichia coli [26]) was 0.25 µg/mL. For the same molecule, the MIC (Escherichia coli [27]) was 0.2 µg/mL, the MIC (Escherichia coli [28]) was 0.39 µg/mL and the MIC (Acinetobacter baumannii [29]) was 1.56 µg/mL. The MIC (Acinetobacter baumannii [30]) was 12.5 µg/mL, the MIC (Acinetobacter baumannii [31]) was 6.25 µg/mL and the MIC (Acinetobacter baumannii [32]) was 3.13 µg/mL. For the same molecule, the MIC (Acinetobacter baumannii [33]) was 12.5 µg/mL, the MIC (Escherichia coli [34]) was 6.25 µg/mL and the MIC (Escherichia coli [35]) was 1.56 µg/mL. The MIC (Escherichia coli [36]) was 3.13 µg/mL, the MIC (Escherichia coli [37]) was 3.13 µg/mL and the “fractional inhibitory concentration index (FICI)” value (Acinetobacter baumannii [38]) was 0.188. The “fractional inhibitory concentration index (FICI)” value (Acinetobacter baumannii [39]) was under 0.032, the “fractional inhibitory concentration index (FICI)” value (Acinetobacter baumannii [40]) was under 0.25 and the “fractional inhibitory concentration index (FICI)” value (Escherichia coli [41]) was 0.266. For the same molecule, the “fractional inhibitory concentration index (FICI)” value (Escherichia coli [42]) was 0.375, the “fractional inhibitory concentration index (FICI)” value (Escherichia coli [43]) was 0.047 and the “fractional inhibitory concentration index (FICI)” value (Escherichia coli [44]) was 0.188. The Kd [45] was 160 µM and the Kd [46] was 17 µM.
